Measurements taken from patent publication US12060409B2, “Short cyclic peptides for the treatment of Graves' disease” (priority 2018, dated 2024).
Peptide text beside a SMILES is read from it.

How the values were obtained:
[1] = test system: immunologically naïve mice; assay: Studies in immunologically naive mice: 6 monthly IV administrations; type: in vivo, BALB/c mice; conditions: 1 mg/kg bw IV, 6 monthly administrations
Description: BALB/c mice were adapted for at least one week to start experiments at the age of 12 weeks. Animals were kept as described before. This study was approved by the local animal welfare authority and Ethics committee at the Regierung von Oberbayern (Government of Upper Bavaria) in Munich, Germany (no. 55.2-1-54-2532.0-32-15), and carried out in accordance to the European Commission guidelines.
Peptides (1 mg/kg body weight) or NaCl vehicle control were given by IV injection into a tail vein of these naïve mice (n=6 per group), and then continued at 4-weekly intervals for 6 months, as described before for the therapeutic study in immunized mice. Serum samples were taken at identical intervals.

[2] = test system: TSHR-immunized diseased mice; conditions: previous study (8); cited from earlier work

Row | Compound | Tolerability / clinical findings [1] | Improvement of disease parameters [2]
1 | CC(C)[C@@H]1NC(=O)[C@H](CCCNC(=N)N)NC(=O)[C@H](Cc2ccccc2)NC(=O)[C@H](CC(=O)O)NC(=O)[C@H](CCC(=O)O)NC(=O)[C@H](CCC(=O)O)NC(=O)[C@H](CCC(N)=O)NC(=O)[C@H](Cc2c[nH]cn2)NC(=O)[C@@H](N)CSSC[C@@H](C(=O)O)NC(=O)[C@H]([C@@H](C)O)NC1=O [peptide 19, CHQEEDFRVTC] (HELM PEPTIDE1{C.H.Q.E.E.D.F.R.V.T.C}$PEPTIDE1,PEPTIDE1,1:R3-11:R3$$$V2.0) | no pathological clinical findings were observed | 
2 | CC(C)C[C@@H]1NC(=O)[C@H](Cc2ccc(O)cc2)NC(=O)[C@H](C(C)C)NC(=O)[C@H](C)NC(=O)[C@H](CC(=O)O)NC(=O)[C@H](CC(C)C)NC(=O)[C@H](CCCCN)NC(=O)[C@H]([C@@H](C)O)NC(=O)CNC(=O)[C@H](CCCCN)NC(=O)[C@H](CC(N)=O)NC(=O)[C@H](CCCCN)NC(=O)[C@H](CC(N)=O)NC1=O [peptide 836 13mer, TKLDAVYLNKNKG] (HELM PEPTIDE1{A.V.Y.L.N.K.N.K.G.T.K.L.D}$PEPTIDE1,PEPTIDE1,1:R1-13:R2$$$V2.0) | no pathological clinical findings were observed | 
3 | SPPCECHQEEDFRVTCKDIQRIPS (cyclic; Amino acid sequence derived from human thyrotropin-TSH receptor (TSHR)) [peptide 829] |  | small, non-significant trends to improve disease parameters
